In the NIST ThermoML archive (doi:10.1016/j.tca.2005.05.013):
Numbers after ± are expanded uncertainties.

Conditions: Crystal; DTA

Normal melting temperature	SMILES
241.00 ± 10 °C	Nc1ccc2[nH]c3ccc(N)cc3c2c1 [3,6-diamino-9H-carbazole]
296.50 ± 10 °C	O=[N+]([O-])c1ccc2[nH]c3ccc([N+](=O)[O-])cc3c2c1 [3,6-dinitro-9H-carbazole]
